Assay results: patent US9375004B2 (Bayer Intellectual Property GmbH, priority 2010, dated 2016)
Values belong to the compound of their own block, whether it stands above or below them.

Tests used:
[1] = test system: Fusarium nivale (var. majus); assay: Fusarium nivale (var. majus)-test (wheat)/preventive; conditions: for Efficacy: preventive, evaluated 5 days after inoculation; for protection: dose of 250 ppm and 500 ppm of active ingredient
[2] = test system: Sphaerotheca fuliginea; assay: Sphaerotheca test (cucumber)/preventive; format: in vivo; conditions: 500 ppm, preventive, evaluated 7 days after inoculation
[3] = logP by HPLC on reversed-phase column (EEC Directive 79/831 Annex V.A8); conditions: EEC Directive 79/831 Annex V.A8
[4] = test system: Alternaria solani; assay: Alternaria test (tomato)/preventive; format: in vivo; conditions: 500 ppm, preventive, evaluated 7 days after inoculation
[5] = test system: Puccinia triticina; assay: Puccinia triticina-test (wheat)/preventive; format: in vivo; conditions: 500 ppm, preventive, evaluated 8 days after inoculation
[6] = test system: Pyrenophora teres; assay: Pyrenophora teres-test (barley)/preventive; format: in vivo; conditions: 500 ppm, preventive, evaluated 8 days after inoculation
[7] = test system: Venturia inaequalis; assay: Venturia test (apples)/preventive; conditions: 100 ppm, preventive, evaluated 10 days after inoculation
[8] = test system: Uromyces appendiculatus; conditions: 100 ppm, beans, preventive, evaluated 10 days after inoculation
[9] = HPLC on reversed-phase column (C 18)
[10] = HPLC on a reversed-phase column (C 18)

Structure (SMILES): Cn1cc(C(=O)Nc2ccccc2C2CC2C2CC2)c(C(F)F)n1 (stereo not drawn) [2.34 from WO-2003/074491, N-{2-[1,1′-bi(cyclopropyl)-2-yl]phenyl}-3-(difluoromethyl)-1-methyl-1H-pyrazole-4-carboxamide, reference compound]
- Efficacy ([1]; 500 ppm): 57%
- Efficacy ([1]; 500 ppm, listed as 2.34): less than 60%

Structure (SMILES): CC(C)C1C2CCC1c1c(NC(=O)c3cn(C)nc3C(F)F)cccc12 (stereo not drawn) [15.202 (syn/anti 3/7) from WO-2004/035589] [3-(difluoromethyl)-N-(9-isopropyl-1,2,3,4-tetrahydro-1,4-methanonaphthalen-5-yl)-1-methyl-1H-pyrazole-4-carboxamide, reference compound]
- Efficacy ([1]; 250 ppm): 50%
- Efficacy ([1]; 500 ppm): 83%

Structure (SMILES): CC(C)C1C2CCC1c1c(NC(=O)c3cn(C)nc3C(F)F)cccc12 (stereo not drawn) [15.202 (syn/anti 9/1) from WO-2004/035589] [3-(difluoromethyl)-N-(9-isopropyl-1,2,3,4-tetrahydro-1,4-methanonaphthalen-5-yl)-1-methyl-1H-pyrazole-4-carboxamide, reference compound]
- Efficacy ([1]; 250 ppm): 50%
- Efficacy ([1]; 500 ppm): 50%

Structure (SMILES): Cn1cc(C(=O)Nc2cccc3c2C2CCC3C2=C(Cl)Cl)c(C(F)F)n1 (stereo not drawn) [A1.1 from WO-2008/131901, N-[9-(dichloromethylene)-1,2,3,4-tetrahydro-1,4-methanonaphthalen-5-yl]-3-(difluoromethyl)-1-methyl-1H-pyrazole-4-carboxamide, reference compound]
- Efficacy ([1]; 250 ppm): 75%
- Efficacy ([1]; 500 ppm): 88%
- protection [1]: at least 70%

- logP [3, 9]: 2.98
Structure (SMILES): Cn1nc(C(F)F)c(C(=O)Nc2ccccc2C(C)(C)C)c1F [Example 3]
- Efficacy [2]: 98%
- Efficacy [4]: 94%

Structure (SMILES): CC(C)C1C2CCC1c1c(NC(=O)c3cn(C)nc3C(F)F)cccc12 (stereo not drawn) [Example 15.202, 3-(difluoromethyl)-N-(9-isopropyl-1,2,3,4-tetrahydro-1,4-methanonaphthalen-5-yl)-1-methyl-1H-pyrazole-4-carboxamide, reference compound]
- protection [1]: average (less than 50%) protection to good (at least 70%) protection

- logP [3, 9]: 3.34
Structure (SMILES): COC(C)(C)C#Cc1ccccc1NC(=O)c1c(C(F)F)nn(C)c1F [Example 19]
- Efficacy [4]: 80%

Structure (SMILES): CCC(CC(C)C)c1ccccc1NC(=O)c1c(C(F)F)nn(C)c1F (stereo not drawn) [Example 20]
- logP [3, 9]: 4.28
- Efficacy [4]: 90%

Structure (SMILES): Cn1nc(C(F)F)c(C(=S)Nc2ccccc2CC[Si](C)(C)C)c1Cl [Example 25]
- Efficacy ([1]; 500 ppm): 88%
- Efficacy [5]: 100%
- logP [3, 9]: 4.56

Structure (SMILES): Cn1nc(C(F)F)c(C(=O)Nc2ccccc2OC(F)(F)C(F)C(F)(F)F)c1F (stereo not drawn) [Example 32]
- logP [3, 9]: 3.48
- Efficacy [4]: 95%

- logP [3, 9]: 2.94
Structure (SMILES): Cn1nc(C(F)F)c(C(=O)Nc2cccc3c2CCC3)c1F [Example 54]
- Efficacy [4]: 70%

- logP [3, 9]: 3.19
Structure (SMILES): Cn1nc(C(F)F)c(C(=O)Nc2cccc3c2CCC3)c1Cl [Example 55]
- Efficacy [6]: 71%
- Efficacy ([1]; 500 ppm): 83%
- Efficacy [5]: 100%

Structure (SMILES): CC1CC(C)(C)c2cccc(NC(=O)c3c(C(F)F)nn(C)c3Cl)c21 (stereo not drawn) [Example 65]
- Efficacy [6]: 100%
- Efficacy ([1]; 500 ppm): 86%
- Efficacy [7]: 98%
- Efficacy [5]: 100%
- Efficacy [8]: 100%
- logP [3, 9]: 4.04
- Efficacy [4]: 80%

- logP [3, 9]: 3.59
Structure (SMILES): Cn1nc(C(F)F)c(C(=O)Nc2ccccc2-c2ccccc2)c1Cl [Example 74]
- Efficacy [4]: 78%

- logP [3, 9]: 3.74
Structure (SMILES): Cc1ccccc1-c1ccccc1NC(=O)c1c(C(F)F)nn(C)c1F [Example 75]
- Efficacy [6]: 100%
- Efficacy [5]: 70%
- Efficacy [4]: 94%

- logP [3, 9]: 2.98
Structure (SMILES): CC(C)Oc1cccc(NC(=O)c2c(C(F)F)nn(C)c2Cl)c1 [Example 169]
- Efficacy [6]: 100%
- Efficacy ([1]; 500 ppm): 71%
- Efficacy [7]: 96%
- Efficacy [5]: 100%
- Efficacy [8]: 100%

- logP [3, 9]: 2.88
Structure (SMILES): CC(C)Oc1cccc(NC(=O)c2c(C(F)F)nn(C)c2F)c1 [Example 170]
- Efficacy ([1]; 500 ppm): 86%
- Efficacy [5]: 100%

- logP [3, 9]: 3.25
Structure (SMILES): CCCOc1cccc(NC(=O)c2c(C(F)F)nn(C)c2Cl)c1 [Example 174]
- Efficacy [4]: 70%

- logP [3, 9]: 3.15
Structure (SMILES): C=C(C)COc1cccc(NC(=O)c2c(C(F)F)nn(C)c2F)c1 [Example 176]
- Efficacy [6]: 100%
- Efficacy ([1]; 500 ppm): 100%
- Efficacy [5]: 100%

- logP [3, 9]: 3.25
Structure (SMILES): Cn1nc(C(F)F)c(C(=O)Nc2cccc(OC(F)(F)F)c2)c1Cl [Example 181]
- Efficacy [8]: 100%

- logP [3, 9]: 3.09
Structure (SMILES): Cn1nc(C(F)F)c(C(=O)Nc2cccc(OC(F)(F)C(F)F)c2)c1Cl [Example 188]
- Efficacy [6]: 92%
- Efficacy [5]: 100%
- Efficacy [8]: 100%

- logP [3, 9]: 3.17
Structure (SMILES): Cn1nc(C(F)F)c(C(=O)Nc2ccc3c(c2)CCC3)c1Cl [Example 193]
- Efficacy ([1]; 500 ppm): 75%
- Efficacy [5]: 100%

- logP [3, 9]: 4.56
Structure (SMILES): Cc1cc(C)c(-c2cccc(NC(=O)c3c(C(F)F)nn(C)c3Cl)c2)c(C)c1 [Example 212]
- Efficacy ([1]; 500 ppm): 75%
- Efficacy [5]: 86%

- logP [3, 10]: 4.19
Structure (SMILES): Cc1cc(Cl)ccc1Oc1cccc(NC(=O)c2c(C(F)F)nn(C)c2F)c1 [Example 254]
- Efficacy [4]: 70%

- logP [3, 10]: 3.89
Structure (SMILES): Cn1nc(C(F)F)c(C(=O)Nc2cccc(Oc3cccc(C(F)(F)F)c3)c2)c1Cl [Example 255]
- Efficacy ([1]; 500 ppm): 100%
- Efficacy [5]: 94%
- Efficacy [8]: 73%

Structure (SMILES): Cc1nn(C)c(F)c1C(=O)Nc1ccccc1C(C)CC(C)C (stereo not drawn) [I-21 from WO-2003/010149, 5-fluoro-1,3-dimethyl-N-[2-(4-methylpentan-2-yl)phenyl]-1H-pyrazole-4-carboxamide, reference compound]
- Efficacy ([1]; 250 ppm): 20%
- Efficacy ([1]; 500 ppm): 40%
- protection [1]: less than 40%

- logP [3, 9]: 5.03
Structure (SMILES): Cn1nc(C(F)F)c(C(=O)Nc2cccc(-c3ccc([Si](C)(C)C)cc3)c2)c1F [compound 239]

- logP [3, 9]: 5.25
Structure (SMILES): Cn1nc(C(F)F)c(C(=O)Nc2cccc(-c3ccc([Si](C)(C)C)cc3)c2)c1Cl [compound 240]

- logP [3, 9]: 4.31
Structure (SMILES): Cn1nc(C(F)F)c(C(=O)Nc2cccc(-c3cccc(OC(F)(F)F)c3)c2)c1Cl [compound 241]

- logP [3, 9]: 4.11
Structure (SMILES): Cn1nc(C(F)F)c(C(=O)Nc2cccc(-c3cccc(OC(F)(F)F)c3)c2)c1F [compound 242]

- logP [3, 9]: 4.14
Structure (SMILES): Cn1nc(C(F)F)c(C(=O)Nc2cccc(-c3ccc(OC(F)(F)F)cc3)c2)c1F [compound 243]

- logP [3, 10]: 4.34
Structure (SMILES): Cn1nc(C(F)F)c(C(=O)Nc2cccc(-c3ccc(OC(F)(F)F)cc3)c2)c1Cl [compound 244]

- logP [3, 10]: 4.46
Structure (SMILES): CC(C)O/N=C/c1ccc(-c2cccc(NC(=O)c3c(C(F)F)nn(C)c3F)c2)cc1 [compound 245]

- logP [3, 10]: 4.66
Structure (SMILES): CC(C)O/N=C/c1ccc(-c2cccc(NC(=O)c3c(C(F)F)nn(C)c3Cl)c2)cc1 [compound 246]

- logP [3, 10]: 5.28
Structure (SMILES): C/C(=N\OC(C)(C)C)c1ccc(-c2cccc(NC(=O)c3c(C(F)F)nn(C)c3F)c2)cc1 [compound 247]

- logP [3, 10]: 5.51
Structure (SMILES): C/C(=N\OC(C)(C)C)c1ccc(-c2cccc(NC(=O)c3c(C(F)F)nn(C)c3Cl)c2)cc1 [compound 248]

- logP [3, 10]: 3.83
Structure (SMILES): Cn1nc(C(F)F)c(C(=O)Nc2cccc(C#Cc3ccccc3)c2)c1F [compound 249]

- logP [3, 10]: 3.35
Structure (SMILES): Cn1nc(C(F)F)c(C(=O)Nc2cccc(Oc3ccccc3)c2)c1F [compound 250]

- logP [3, 10]: 3.56
Structure (SMILES): Cn1nc(C(F)F)c(C(=O)Nc2cccc(Oc3ccccc3)c2)c1Cl [compound 251]

- logP [3, 10]: 3.35
Structure (SMILES): Cn1nc(C(F)F)c(C(=O)Nc2cccc(OCc3ccccc3)c2)c1F [compound 252]

- logP [3, 10]: 3.55
Structure (SMILES): Cn1nc(C(F)F)c(C(=O)Nc2cccc(OCc3ccccc3)c2)c1Cl [compound 253]

- logP [3, 10]: 3.85
Structure (SMILES): Cn1nc(C(F)F)c(C(=O)Nc2cccc(Sc3ccccc3)c2)c1Cl [compound 256]

- logP [3, 10]: 3.65
Structure (SMILES): Cn1nc(C(F)F)c(C(=O)Nc2cccc(Sc3ccccc3)c2)c1F [compound 257]

- logP [3, 10]: 4.98
Structure (SMILES): Cn1nc(C(F)F)c(C(=O)Nc2cccc(Sc3ccc(C(C)(C)C)cc3)c2)c1F [compound 258]

- logP [3, 10]: 5.17
Structure (SMILES): Cn1nc(C(F)F)c(C(=O)Nc2cccc(Sc3ccc(C(C)(C)C)cc3)c2)c1Cl [compound 259]

- logP [3, 10]: 3.76
Structure (SMILES): Cn1nc(C(F)F)c(C(=O)Nc2ccc(OC(F)(F)F)cc2Br)c1F [compound 260]

- logP [3, 10]: 2.70
Structure (SMILES): Cn1nc(C(F)F)c(C(=O)Nc2ccc(Cl)cc2)c1F [compound 261]

- logP [3, 10]: 4.21
Structure (SMILES): Cn1nc(C(F)F)c(C(=O)Nc2ccc(C3CCCCC3)cc2)c1F [compound 262]

- logP [3, 10]: 4.44
Structure (SMILES): Cn1nc(C(F)F)c(C(=O)Nc2ccc(C3CCCCC3)cc2)c1Cl [compound 263]

- logP [3, 10]: 3.33
Structure (SMILES): Cn1nc(C(F)F)c(C(=O)Nc2ccc(-c3ccccc3)cc2)c1F [compound 264]

- logP [3, 10]: 3.50
Structure (SMILES): Cn1nc(C(F)F)c(C(=O)Nc2ccc(-c3ccccc3)cc2)c1Cl [compound 265]

- logP [3, 10]: 4.51
Structure (SMILES): Cn1nc(C(F)F)c(C(=O)Nc2ccc(-c3cc(Cl)cc(Cl)c3)cc2)c1F [compound 266]

- logP [3, 10]: 4.72
Structure (SMILES): Cn1nc(C(F)F)c(C(=O)Nc2ccc(-c3cc(Cl)cc(Cl)c3)cc2)c1Cl [compound 267]

- logP [3, 10]: 3.29
Structure (SMILES): Cn1nc(C(F)F)c(C(=O)Nc2ccc(Oc3ccccc3)cc2)c1F [compound 268]
